# Several values for one entry are separate records, joined by “and”; a condition that tells them apart may be missing. Equal entries are not always repeated. Inconclusive results are not listed.
# System: BDF1 mice, colon carcinoma 38 sc, T/C %
# Test: NCI In Vivo Anticancer Drug Screen. Data for tumor model Colon Carcinoma 38 (subcutaneous) in B6D2F1 (BDF1) mice
# Details: endpoint: median tumor weight (est.), higher = larger tumour
# Procedure, shortened: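 Transplantable tumor in mice; compound-treated vs vehicle-dosed controls. Measured survival or tumor size; value = T ÷ C.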
# [1] = dose: 25.0 mg/kg/injection, schedule: Q07DX002 (ip), vehicle: saline
# [2] = dose: 50.0 mg/kg/injection, schedule: Q07DX002 (ip), vehicle: saline
# [3] = dose: 100.0 mg/kg/injection, schedule: Q07DX002 (ip), vehicle: saline
# [4] = dose: 25.0 mg/kg/injection, schedule: Q07DX002 (ip), vehicle: Klucel (hydroxypropylcellulose) (HPC)
# [5] = dose: 50.0 mg/kg/injection, schedule: Q07DX002 (ip), vehicle: Klucel (hydroxypropylcellulose) (HPC)
# [6] = dose: 100.0 mg/kg/injection, schedule: Q07DX002 (ip), vehicle: Klucel (hydroxypropylcellulose) (HPC)
# [7] = dose: 400.0 mg/kg/injection, schedule: Q07DX002 (ip), vehicle: Klucel (hydroxypropylcellulose) (HPC)
# [8] = dose: 25.0 mg/kg/injection, schedule: Q07DX002 (ip), vehicle: saline with Tween-80
# [9] = dose: 50.0 mg/kg/injection, schedule: Q07DX002 (ip), vehicle: saline with Tween-80
# [10] = dose: 100.0 mg/kg/injection, schedule: Q07DX002 (ip), vehicle: saline with Tween-80
# [11] = dose: 200.0 mg/kg/injection, schedule: Q07DX002 (ip), vehicle: saline with Tween-80
# [12] = dose: 400.0 mg/kg/injection, schedule: Q07DX002 (ip), vehicle: saline with Tween-80
# [13] = dose: 200.0 mg/kg/injection, schedule: Q07DX002 (ip), vehicle: Klucel (hydroxypropylcellulose) (HPC)
# [14] = dose: 4.0 mg/kg/injection, schedule: Q07DX003 (ip), vehicle: saline
# [15] = dose: 8.0 mg/kg/injection, schedule: Q07DX003 (ip), vehicle: saline
# [16] = dose: 16.0 mg/kg/injection, schedule: Q07DX003 (ip), vehicle: saline
# [17] = dose: 12.5 mg/kg/injection, schedule: Q07DX002 (ip), vehicle: saline with Tween-80
# [18] = dose: 12.5 mg/kg/injection, schedule: Q07DX002 (ip), vehicle: Klucel (hydroxypropylcellulose) (HPC)
compound,measurement,setting,value
OCCN1CCN(CC/C=C2/c3ccccc3Sc3ccc(Cl)cc32)CC1,T/C,"dose: 3.12 mg/kg/injection, schedule: Q07DX002 (ip), vehicle: saline",83 % of control
same,T/C,"dose: 6.25 mg/kg/injection, schedule: Q07DX002 (ip), vehicle: saline",39 % of control
same,T/C,"dose: 12.5 mg/kg/injection, schedule: Q07DX002 (ip), vehicle: saline",112 % of control
same,T/C,[1],67 % of control
same,T/C,[2],110 % of control
same,T/C,[3],99 % of control
O.O.[NH-]C1CCCCC1[NH-].[Pt+2] (stereo not drawn),T/C,"dose: 1.25 mg/kg/injection, schedule: Q07DX002 (ip), vehicle: dextrose",98 % of control
same,T/C,"dose: 10.0 mg/kg/injection, schedule: Q07DX002 (ip), vehicle: dextrose",61 % of control and 62 % of control
same,T/C,"dose: 20.0 mg/kg/injection, schedule: Q07DX002 (ip), vehicle: dextrose",37 % of control and 43 % of control
same,T/C,"dose: 40.0 mg/kg/injection, schedule: Q07DX002 (ip), vehicle: dextrose",20 % of control
O=S(=O)(SC(S(=O)(=O)c1ccccc1)S(=O)(=O)c1ccccc1)c1ccccc1,T/C,[4],174 % of control
same,T/C,[5],199 % of control
same,T/C,[6],113 % of control
same,T/C,[7],115 % of control
CC(=O)Oc1ccc[nH]c1=O,T/C,[8],102 % of control
same,T/C,"dose: 25.0 mg/kg/injection, schedule: Q07DX003 (ip), vehicle: saline with Tween-80",101 % of control
same,T/C,[9],77 % of control
same,T/C,"dose: 50.0 mg/kg/injection, schedule: Q07DX003 (ip), vehicle: saline with Tween-80",70 % of control
same,T/C,[10],108 % of control and 92 % of control
same,T/C,"dose: 100.0 mg/kg/injection, schedule: Q07DX003 (ip), vehicle: saline with Tween-80",49 % of control
same,T/C,[11],114 % of control
same,T/C,"dose: 200.0 mg/kg/injection, schedule: Q07DX003 (ip), vehicle: saline with Tween-80",114 % of control
same,T/C,"dose: 400.0 mg/kg/injection, schedule: Q07DX003 (ip), vehicle: saline with Tween-80",83 % of control
same,T/C,"dose: 800.0 mg/kg/injection, schedule: Q07DX002 (ip), vehicle: saline with Tween-80",74 % of control and 75 % of control
same,T/C,"dose: 800.0 mg/kg/injection, schedule: Q07DX003 (ip), vehicle: saline with Tween-80",57 % of control
O=C1OCC2C(=O)OCC12 (stereo not drawn),T/C,[8],103 % of control
same,T/C,[10],46 % of control
same,T/C,[11],120 % of control
same,T/C,[12],69 % of control
COc1ccc(-c2cc(=O)c3cccc(CC(=O)O)c3o2)cc1OC,T/C,[4],106 % of control
same,T/C,[6],117 % of control
same,T/C,[13],82 % of control
O=C1C=CC(=O)N1c1ccc(Cl)cc1,T/C,"dose: 1.25 mg/kg/injection, schedule: Q07DX002 (ip), vehicle: Klucel (hydroxypropylcellulose) (HPC)",32 % of control
same,T/C,"dose: 10.0 mg/kg/injection, schedule: Q07DX002 (ip), vehicle: Klucel (hydroxypropylcellulose) (HPC)",61 % of control and 73 % of control
same,T/C,"dose: 20.0 mg/kg/injection, schedule: Q07DX002 (ip), vehicle: Klucel (hydroxypropylcellulose) (HPC)",60 % of control and 67 % of control
C1CC[N-]CC1.[Cl][Pt+2][Cl].[NH-]C1CC1,T/C,"dose: 6.25 mg/kg/injection, schedule: Q07DX002 (ip), vehicle: water",75 % of control
same,T/C,"dose: 25.0 mg/kg/injection, schedule: Q07DX002 (ip), vehicle: water",86 % of control
same,T/C,"dose: 100.0 mg/kg/injection, schedule: Q07DX002 (ip), vehicle: water",163 % of control
Nc1ccc2nc3ccc(N)cc3[n+](-c3ccccc3)c2c1,T/C,"dose: 2.0 mg/kg/injection, schedule: Q07DX002 (ip), vehicle: saline",95 % of control
same,T/C,"dose: 4.0 mg/kg/injection, schedule: Q07DX002 (ip), vehicle: saline",74 % of control
same,T/C,[14],28 % of control
same,T/C,"dose: 8.0 mg/kg/injection, schedule: Q07DX002 (ip), vehicle: saline",96 % of control
same,T/C,[15],43 % of control
same,T/C,"dose: 16.0 mg/kg/injection, schedule: Q07DX002 (ip), vehicle: saline",72 % of control
same,T/C,[16],46 % of control
same,T/C,"dose: 32.0 mg/kg/injection, schedule: Q07DX002 (ip), vehicle: saline",97 % of control
same,T/C,"dose: 32.0 mg/kg/injection, schedule: Q07DX003 (ip), vehicle: saline",43 % of control
O=C(N/N=C\c1cc(Br)cc(Br)c1O)N/N=C/c1cc(Br)cc(Br)c1O,T/C,[17],119 % of control
same,T/C,[10],90 % of control
same,T/C,[11],102 % of control
same,T/C,[12],92 % of control
CCN(C)N=Nc1ccc(C(N)=O)cc1,T/C,[18],82 % of control and 84 % of control
same,T/C,[4],82 % of control and 87 % of control
same,T/C,[5],56 % of control and 63 % of control and 76 % of control
same,T/C,[6],61 % of control and 77 % of control and 78 % of control
CC1(C)CC(=O)C(CSC(=O)c2ccccc2)C(=O)C1,T/C,[18],120 % of control and 104 % of control
same,T/C,[4],113 % of control and 104 % of control
same,T/C,[6],88 % of control
c1csc(C[N+]23CN4CN(CN(C4)C2)C3)c1,T/C,[1],77 % of control
same,T/C,[2],108 % of control
same,T/C,[3],81 % of control
same,T/C,"dose: 200.0 mg/kg/injection, schedule: Q07DX002 (ip), vehicle: saline",97 % of control
same,T/C,"dose: 400.0 mg/kg/injection, schedule: Q07DX002 (ip), vehicle: saline",112 % of control
Clc1ccc(CN2COc3c(ccc4cccnc34)C2)cc1Cl,T/C,[17],180 % of control
same,T/C,[8],171 % of control
same,T/C,[9],110 % of control
same,T/C,[10],206 % of control
C1CCC2C[N-]CCC2C1.C1CCC2C[N-]CCC2C1.C1CCC2C[N-]CCC2C1.C1CCC2C[N-]CCC2C1.[Cl][Rh][Cl] (stereo not drawn),T/C,"dose: 1.0 mg/kg/injection, schedule: Q07DX003 (ip), vehicle: saline",107 % of control
same,T/C,"dose: 2.0 mg/kg/injection, schedule: Q07DX003 (ip), vehicle: saline",62 % of control
same,T/C,[14],82 % of control
same,T/C,[15],87 % of control
same,T/C,[16],78 % of control
C/C=C\C1OC1(C)c1cc(=O)c2c(C)cc3c(c2o1)C(=O)c1c(O)c(C2CC(C)(N(C)C)C(OC(C)=O)C(C)O2)cc(C2CC(N(C)C)C(O)C(C)O2)c1C3=O (stereo not drawn),T/C,"dose: 0.38 mg/kg/injection, schedule: Q07DX002 (ip), vehicle: saline + alcohol",119 % of control
same,T/C,"dose: 0.75 mg/kg/injection, schedule: Q07DX002 (ip), vehicle: saline + alcohol",85 % of control
same,T/C,"dose: 3.0 mg/kg/injection, schedule: Q07DX002 (ip), vehicle: saline + alcohol",58 % of control
same,T/C,"dose: 6.0 mg/kg/injection, schedule: Q07DX002 (ip), vehicle: saline + alcohol",53 % of control
S=C(Nc1ccc(Cl)c(Cl)c1)N1c2ccccc2-n2cccc2C1c1cccnc1 (stereo not drawn),T/C,[5],83 % of control
same,T/C,[13],113 % of control and 95 % of control
same,T/C,[7],101 % of control
COc1ccc(CC2C(=O)NC(C)C(=O)N(C)C3C(=O)N(C)C(Cc4ccc(O)c(c4)Oc4ccc(cc4)C3O)C(=O)NC(C)C(=O)NC(C)C(=O)N2C)cc1 (stereo not drawn),T/C,"dose: 0.5 mg/kg/injection, schedule: Q07DX003 (ip), vehicle: Klucel (hydroxypropylcellulose) (HPC)",98 % of control
same,T/C,"dose: 1.0 mg/kg/injection, schedule: Q07DX003 (ip), vehicle: Klucel (hydroxypropylcellulose) (HPC)",106 % of control
same,T/C,"dose: 4.0 mg/kg/injection, schedule: Q07DX003 (ip), vehicle: Klucel (hydroxypropylcellulose) (HPC)",182 % of control
same,T/C,"dose: 8.0 mg/kg/injection, schedule: Q07DX003 (ip), vehicle: Klucel (hydroxypropylcellulose) (HPC)",159 % of control
same,T/C,"dose: 16.0 mg/kg/injection, schedule: Q07DX003 (ip), vehicle: Klucel (hydroxypropylcellulose) (HPC)",44 % of control
CS(=O)(=O)OCCN(CCOS(C)(=O)=O)c1ccc(C=O)cc1,T/C,"dose: 6.25 mg/kg/injection, schedule: Q07DX002 (ip), vehicle: saline with Tween-80",113 % of control
same,T/C,[17],29 % of control
same,T/C,[8],57 % of control
same,T/C,[9],60 % of control
O=CC=O,T/C,[9],72 % of control and 86 % of control
same,T/C,[10],75 % of control and 77 % of control
same,T/C,[12],80 % of control and 95 % of control
COc1ccc2c(NCCCCCCNc3c4ccccc4nc4cc(OC)ccc34)c3ccccc3nc2c1,T/C,"dose: 0.31 mg/kg/injection, schedule: Q07DX002 (ip), vehicle: lactic acid",54 % of control
same,T/C,"dose: 0.32 mg/kg/injection, schedule: Q07DX002 (ip), vehicle: lactic acid",72 % of control

# From PubChem BioAssay AID212 (DTP/NCI, 2004)
